Literature values, collected in US20250041489A1, “A Drug Coating Formulation for a Sirolimus Coated Balloon Catheter” (C. R. Bard, Inc., priority 2021, published 2025).

Conditions: compared to amorphous sirolimus

Half-life of sirolimus on the surface of a balloon: four weeks
Structure (SMILES): CO[C@H]1C[C@@H]2CC[C@@H](C)[C@@](O)(O2)C(=O)C(=O)N2CCCC[C@H]2C(=O)O[C@H]([C@H](C)C[C@@H]2CC[C@@H](O)[C@H](OC)C2)CC(=O)[C@H](C)/C=C(\C)[C@@H](O)[C@@H](OC)C(=O)[C@H](C)C[C@H](C)/C=C/C=C/C=C/1C [crystalline sirolimus, sirolimus]
